Holding throughout (test): DTP human tumour cell line panel, 48 h
Assay [1] concerns MDA-MB-231.
The test system of assay [2] is SW-620.
Assay [3] deals with TK-10.
The test system of assay [4] is SF-539.
Assay [5] relates to HOP-92.
The test system of assay [6] is IGROV-1.
The test system of assay [7] is CCRF-CEM.
For assay [8], the system named is UACC-62.
Assay [9] relates to MDA-MB-435.
For assay [10], the system named is HCT-116.
Assay [11] has as its system SR.
The test system of assay [12] is U-251.
The subject of assay [13] is SN12C.
The subject of assay [14] is Hs-578T.
Assay [15] concerns A549.
The test system of assay [16] is OVCAR-3.
Assay [17] has as its system HOP-62.
For assay [18], the system named is OVCAR-5.
In assay [19] the test system is EKVX.
The subject of assay [20] is Malme-3M.

SMILES strings stand for the structures.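 Exposure lasted 48 hours, with cells grown in 96-well plates and compounds tested at five concentrations. GI50 marks 50% less growth.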 Activity calls are given as the source filed them. No stated cut-off is given here; in the data, active = GI50 up to about 1.1 µM and inactive = higher.

Regarding `CC1(C)C/N=C/C(C)(OCc2ccccc2)C(=O)NC(C)(C)C/N=C/C(C)(OCc2ccccc2)C(=O)N1` (stereo not drawn), the GI50 was > 10 µM (inactive) in [1]; > 10 µM (inactive) in assay [2]; > 10 µM (inactive) in assay [3]; > 10 µM (inactive) in [4]; 0.0569 µM (active) in [5]; > 10 µM (inactive) in assay [6]. Besides, the GI50 in assay [7], in [8], in [9], in [10], in assay [11] and in assay [12] was > 10 µM (inactive) each time. Further, the GI50 in [13], in assay [14], in assay [15], in assay [16], in assay [17] and in assay [18] was > 10 µM (inactive) each time. Moreover, the GI50 in [19] was > 10 µM (inactive).
With `C=CCN(c1cc(OC)c2[nH]cc(C)c2c1[N+](=O)[O-])S(C)(=O)=O`, the GI50 in [1], in assay [2], in assay [3], in assay [4], in assay [6] and in assay [7] was > 100 µM (inactive) throughout. Also, the GI50 in assay [8], in assay [9], in assay [10], in [20], in [11] and in [12] was > 100 µM (inactive) in each case. Moreover, the GI50 in [13], in assay [14], in assay [15], in assay [16], in [17] and in assay [18] was > 100 µM (inactive) each time. In assay [19], the GI50 was > 100 µM (inactive).
For `Nc1cc(OCc2ccccc2)c(OCc2ccccc2)cc1C=O`, the GI50 in assay [1] is 44.2 µM (inactive); in [2] it was 46.2 µM (inactive); in [3], 15.3 µM (inactive); in [4] it was 5.83 µM (inactive); in assay [6], 31.2 µM (inactive); in assay [7] it was 22.3 µM (inactive). Besides, the GI50 in assay [9] was 39.8 µM (inactive); in assay [10], 21.2 µM (inactive); in [11], 26.6 µM (inactive); in assay [12], 28.4 µM (inactive); in assay [13], 28.1 µM (inactive); in [14] it was 42.4 µM (inactive). For the same compound, the GI50 was 23.8 µM (inactive) in assay [15], > 10 µM (inactive) in [17], 55.2 µM (inactive) in assay [18] and 24.4 µM (inactive) in assay [19].
For `c1ccc2nc3c(nc2c1)sc1ccccc13`, the GI50 in assay [1] was 30.5 µM (inactive); in assay [2] it was 56 µM (inactive); in assay [3], 19.3 µM (inactive); in assay [4], 16.4 µM (inactive); in [6] it was 15.6 µM (inactive); in assay [7] it was 30.9 µM (inactive). Besides, the GI50 in assay [8] is 14.9 µM (inactive); in assay [9], 94.4 µM (inactive); in [10], 26.7 µM (inactive); in [20], 46.9 µM (inactive); in assay [11], 41.2 µM (inactive); in assay [12] it was 16 µM (inactive). In addition, the GI50 was 34 µM (inactive) in assay [13]; 30.5 µM (inactive) in assay [14]; 16.4 µM (inactive) in assay [15]; 29.4 µM (inactive) in assay [16]; 30.7 µM (inactive) in [17]; 60.1 µM (inactive) in assay [18]. The GI50 in [19] was 16.1 µM (inactive).
As for `Cc1cc(N2CCCC2)c([N+](=O)[O-])cc1[N+](=O)[O-]`, the GI50 in assay [1], in [2], in assay [4], in [5], in [6] and in assay [7] was > 100 µM (inactive) throughout. Moreover, the GI50 in [8], in assay [9], in assay [10], in assay [20], in [11] and in assay [12] was > 100 µM (inactive) in each case. Also, the GI50 in [13] was > 100 µM (inactive); in assay [14] it was 90.4 µM (inactive); in [15] it was > 100 µM (inactive); in assay [16], > 100 µM (inactive); in assay [19], > 100 µM (inactive).
As to `NS(=O)(=O)c1ccc(-c2ccc([As](=O)(O)O)cc2)cc1`, the GI50 in assay [1], in [2], in [3], in assay [4], in [5] and in assay [6] was > 100 µM (inactive) each time. The GI50 in assay [8], in [9], in assay [10], in assay [20], in [11] and in assay [12] was > 100 µM (inactive) each time. Also, the GI50 in assay [13] is > 100 µM (inactive); in assay [14], > 100 µM (inactive); in assay [15], > 100 µM (inactive); in [16] it was > 100 µM (inactive); in assay [17] it was 78.3 µM (inactive); in assay [18], > 100 µM (inactive). Further, the GI50 in [19] was > 100 µM (inactive).
`CN1CCC(OC(=O)Oc2ccccc2)(c2ccccc2)CC1`: the GI50 in assay [1] was 12.9 µM (inactive); in assay [2], 25.7 µM (inactive); in [3] it was 19.1 µM (inactive); in assay [4], 13.6 µM (inactive); in assay [6] it was 21.1 µM (inactive); in assay [7], 21.8 µM (inactive). Also, the GI50 was 21.5 µM (inactive) in assay [8]; 17.3 µM (inactive) in assay [9]; 13 µM (inactive) in assay [10]; 17.7 µM (inactive) in assay [20]; 15.9 µM (inactive) in assay [11]; 21.9 µM (inactive) in assay [12]. For the same compound, the GI50 in assay [13] was 15.4 µM (inactive); in [14], 28.5 µM (inactive); in assay [15], 38.2 µM (inactive); in assay [16] it was 61.5 µM (inactive); in assay [17] it was 15.5 µM (inactive); in assay [18] it was 25.4 µM (inactive). Besides, the GI50 in assay [19] is 45.8 µM (inactive).
As to `COc1ccc(-n2cnc3c(NCC(=O)O)ncnc32)cc1`, the GI50 is > 100 µM (inactive) in assay [1]; > 100 µM (inactive) in [2]; > 100 µM (inactive) in [3]; > 100 µM (inactive) in [5]; > 100 µM (inactive) in assay [6]; 48.5 µM (inactive) in assay [7]. Further, the GI50 in [8] is > 100 µM (inactive); in assay [9], > 100 µM (inactive); in assay [10] it was > 100 µM (inactive); in assay [20], 54.1 µM (inactive); in assay [11], > 100 µM (inactive); in assay [12] it was > 100 µM (inactive). The GI50 in [13], in assay [14], in assay [15], in [16], in assay [17] and in [18] was > 100 µM (inactive) each time. Further, the GI50 in [19] was > 100 µM (inactive).
For `COC(=O)/C(C#N)=C(\Nc1ccccc1)N1CCCC1`, the GI50 in assay [1], in [2], in [3], in assay [4], in [5] and in assay [6] was > 100 µM (inactive) throughout. The GI50 in [9], in assay [10], in [20], in assay [11], in [12] and in [13] was > 100 µM (inactive) each time. Also, the GI50 in assay [14], in [15], in [16], in assay [17], in assay [18] and in assay [19] was > 100 µM (inactive) throughout.
Regarding `Cn1c(=O)n2n(c1=O)C1C(=CC2)C2C=CC1n1c(=O)n(C)c(=O)n12` (stereo not drawn), the GI50 in assay [1], in [2], in [3], in [4], in assay [5] and in assay [6] was > 100 µM (inactive) each time. Further, the GI50 in assay [7], in [8], in assay [9], in [10], in assay [20] and in assay [12] was > 100 µM (inactive) throughout. Moreover, the GI50 in assay [13], in assay [14], in assay [15], in assay [16], in assay [17] and in assay [18] was > 100 µM (inactive) in each case. The GI50 in assay [19] was > 100 µM (inactive).
As for `O=C(Nc1c(C(F)(F)F)cc(-c2ccccc2)[nH]c1=O)N1CCOCC1`, the GI50 is > 100 µM (inactive) in assay [1]; > 100 µM (inactive) in assay [2]; > 100 µM (inactive) in [3]; 58.9 µM (inactive) in assay [5]; > 100 µM (inactive) in assay [6]; 46.3 µM (inactive) in assay [7]. In addition, the GI50 in assay [8] is > 100 µM (inactive); in assay [9], > 100 µM (inactive); in assay [10], > 100 µM (inactive); in assay [20], > 100 µM (inactive); in assay [11], 54.3 µM (inactive); in assay [12], 78.5 µM (inactive). The GI50 is > 100 µM (inactive) in [13]; > 100 µM (inactive) in assay [14]; 79.1 µM (inactive) in assay [15]; 70.8 µM (inactive) in assay [16]; > 100 µM (inactive) in assay [17]; > 100 µM (inactive) in assay [18]. For the same compound, the GI50 in assay [19] was 40.2 µM (inactive).

The record behind these values is ChEMBL document CHEMBL1201862, “PubChem BioAssay data set” (2004).
